Experiments:
Format in all cases: functional
[1] = tested on: Pseudomonas aeruginosa; test: Antibacterial activity against carbapenem-resistant Pseudomonas aeruginosa isolate 3D2 GM2 harboring acquired beta-lactamase BEL-3 by broth microdilution method
[2] = tested on: Pseudomonas aeruginosa; test: Antibacterial activity against carbapenem-resistant Pseudomonas aeruginosa isolate 1C3 PTOL1 harboring acquired beta-lactamase OXA-17 by broth microdilution method
[3] = tested on: Pseudomonas aeruginosa; test: Antibacterial activity against carbapenem-resistant Pseudomonas aeruginosa isolate 1E3 PpA2 harboring acquired beta-lactamase OXA-101 by broth microdilution method
[4] = tested on: Pseudomonas aeruginosa; test: Antibacterial activity against Pseudomonas aeruginosa PAO1 by broth microdilution method
[5] = tested on: Pseudomonas aeruginosa; test: Antibacterial activity against Pseudomonas aeruginosa PAO1 harboring acquired beta-lactamase OXA-144 by broth microdilution method
[6] = tested on: Pseudomonas aeruginosa; test: Antibacterial activity against carbapenem-resistant Pseudomonas aeruginosa isolate 1C2 PTOL1 harboring beta-lactamase OXA-17 by broth microdilution method
[7] = tested on: Pseudomonas aeruginosa; test: Antibacterial activity against carbapenem-resistant Pseudomonas aeruginosa isolate 3C8 GM1 harboring acquired beta-lactamase OXA-144 by broth microdilution method
[8] = tested on: Pseudomonas aeruginosa; test: Antibacterial activity against carbapenem-resistant Pseudomonas aeruginosa isolate 1E2 PpA1 harboring acquired beta-lactamase OXA-144 by broth microdilution method
[9] = tested on: Pseudomonas aeruginosa; test: Antibacterial activity against Pseudomonas aeruginosa assessed as percent nonsusceptible isolates by broth microdilution assay
[10] = tested on: Pseudomonas aeruginosa; test: Antibacterial activity against Pseudomonas aeruginosa PAO1 harboring acquired beta-lactamase OXA-2 by broth microdilution method
[11] = tested on: Pseudomonas aeruginosa; test: Antibacterial activity against carbapenem-resistant Pseudomonas aeruginosa isolate 1D5 SA1 harboring acquired beta-lactamase VIM-2 by broth microdilution method
[12] = tested on: Pseudomonas aeruginosa; test: Antibacterial activity against carbapenem-resistant Pseudomonas aeruginosa isolate 3C1 VAL6 by broth microdilution method
[13] = tested on: Pseudomonas aeruginosa; test: Antibacterial activity against carbapenem-resistant Pseudomonas aeruginosa isolate 1E1 PpA1 harboring acquired beta-lactamase OXA-144 by broth microdilution method
[14] = tested on: Pseudomonas aeruginosa; test: Antibacterial activity against carbapenem-resistant Pseudomonas aeruginosa isolate 3C9 GM1 harboring acquired beta-lactamase OXA-144 by broth microdilution method
[15] = tested on: Pseudomonas aeruginosa; test: Antibacterial activity against carbapenem-resistant Pseudomonas aeruginosa isolate 1B2 RCA2 harboring acquired beta-lactamase PER-1 by broth microdilution method
[16] = tested on: Pseudomonas aeruginosa; test: Antibacterial activity against tobramycin-susceptible Pseudomonas aeruginosa by broth microdilution method
[17] = tested on: Pseudomonas aeruginosa; test: Antibacterial activity against tobramycin-resistant Pseudomonas aeruginosa by broth microdilution method
[18] = tested on: Pseudomonas aeruginosa; test: Antibacterial activity against meropenem-resistant Pseudomonas aeruginosa by broth microdilution method
[19] = tested on: Pseudomonas aeruginosa; test: Antibacterial activity against piperacillin-susceptible Pseudomonas aeruginosa by broth microdilution method
[20] = tested on: Pseudomonas aeruginosa; test: Antibacterial activity against Pseudomonas aeruginosa harboring low level of beta lactamase AmpC by broth microdilution method
[21] = tested on: Pseudomonas aeruginosa; test: Antibacterial activity against aztreonam-resistant Pseudomonas aeruginosa by broth microdilution method
[22] = tested on: Pseudomonas aeruginosa; test: Antibacterial activity against ciprofloxacin-resistant Pseudomonas aeruginosa by broth microdilution method
[23] = tested on: Pseudomonas aeruginosa; test: Antibacterial activity against cephalosporin-resistant Pseudomonas aeruginosa clinical isolates
[24] = tested on: Pseudomonas aeruginosa; test: Antibacterial activity against gentamicin-susceptible Pseudomonas aeruginosa by broth microdilution method
[25] = tested on: Pseudomonas aeruginosa; test: Antibacterial activity against ciprofloxacin -susceptible Pseudomonas aeruginosa by broth microdilution method
[26] = tested on: Pseudomonas aeruginosa; test: Antibacterial activity against ceftazidime-susceptible Pseudomonas aeruginosa by broth microdilution method
[27] = tested on: Pseudomonas aeruginosa; test: Antibacterial activity against multidrug-resistant Pseudomonas aeruginosa isolated from patient with cystic fibrosis
[28] = tested on: Pseudomonas aeruginosa; test: Antibacterial activity against Pseudomonas aeruginosa isolated from non-intensive care unit patient by broth microdilution method
[29] = tested on: Pseudomonas aeruginosa; test: Antibacterial activity against piperacillin- and tazobactam-resistant Pseudomonas aeruginosa by broth microdilution method
[30] = tested on: Pseudomonas aeruginosa; test: Antibacterial activity against multidrug-resistant Pseudomonas aeruginosa by broth microdilution method
[31] = tested on: Pseudomonas aeruginosa; test: Antibacterial activity against amikacin-susceptible Pseudomonas aeruginosa by broth microdilution method
[32] = tested on: Pseudomonas aeruginosa; test: Antibacterial activity against meropenem-susceptible Pseudomonas aeruginosa by broth microdilution method
[33] = tested on: Pseudomonas aeruginosa; test: Antibacterial activity against gentamicin-resistant Pseudomonas aeruginosa by broth microdilution method
[34] = tested on: Pseudomonas aeruginosa; test: Antibacterial activity against cefepime-susceptible Pseudomonas aeruginosa by broth microdilution method
[35] = tested on: Pseudomonas aeruginosa; test: Antibacterial activity against piperacillin- and tazobactam-susceptible Pseudomonas aeruginosa by broth microdilution method
[36] = tested on: Pseudomonas aeruginosa; test: Antibacterial activity against ticarcillin-susceptible Pseudomonas aeruginosa by broth microdilution method
[37] = tested on: Pseudomonas aeruginosa; test: Antibacterial activity against Pseudomonas aeruginosa harboring high level of beta lactamase AmpC by broth microdilution method
[38] = tested on: Pseudomonas aeruginosa; test: Antibacterial activity against cefepime-resistant Pseudomonas aeruginosa by broth microdilution method
[39] = tested on: Pseudomonas aeruginosa; test: Antibacterial activity against imipenem-susceptible Pseudomonas aeruginosa by broth microdilution method
[40] = tested on: Pseudomonas aeruginosa; test: Antibacterial activity against imipenem-resistant Pseudomonas aeruginosa by broth microdilution method
[41] = tested on: Pseudomonas aeruginosa; test: Antibacterial activity against aztreonam-susceptible Pseudomonas aeruginosa by broth microdilution method
[42] = tested on: Pseudomonas aeruginosa; test: Antibacterial activity against ticarcillin-resistant Pseudomonas aeruginosa by broth microdilution method
[43] = tested on: Pseudomonas aeruginosa; test: Antibacterial activity against Pseudomonas aeruginosa by broth microdilution method
[44] = tested on: Pseudomonas aeruginosa; test: Antibacterial activity against Pseudomonas aeruginosa isolated from intensive care unit patient by broth microdilution method
[45] = tested on: Pseudomonas aeruginosa; test: Antibacterial activity against non-multidrug-resistant Pseudomonas aeruginosa by broth microdilution method
[46] = tested on: Pseudomonas aeruginosa; test: Antibacterial activity against amikacin-resistant Pseudomonas aeruginosa by broth microdilution method
[47] = tested on: Pseudomonas aeruginosa; test: Antibacterial activity against piperacillin-resistant Pseudomonas aeruginosa by broth microdilution method
[48] = tested on: Pseudomonas aeruginosa; test: Antibacterial activity against ceftazidime-resistant Pseudomonas aeruginosa by broth microdilution method

CO/N=C(\C(=O)N[C@@H]1C(=O)N2C(C(=O)[O-])=C(C[N+]3(C)CCCC3)CS[C@H]12)c1csc(N)n1
1 µg/mL: MIC [4]
32 µg/mL: MIC [1] | MIC [8]
4 µg/mL: MIC [7] | MIC [14]
8 µg/mL: MIC [5]
68.2%: Activity [9]
> 64 µg/mL: MIC [2] | MIC [3] | MIC [6]
64 µg/mL: MIC [12]
16 µg/mL: MIC [11] | MIC [13]
2 µg/mL: MIC [10]

NCC[C@H](O)C(=O)N[C@@H]1C[C@H](N)[C@@H](O[C@H]2O[C@H](CN)[C@@H](O)[C@H](O)[C@H]2O)[C@H](O)[C@H]1O[C@H]1O[C@H](CO)[C@@H](O)[C@H](N)[C@H]1O [AMIKACIN]
2 µg/mL: MIC [12]
32 µg/mL: MIC [2] | MIC [3] | MIC [6] | MIC [8]
18.6%: Activity [9]
16 µg/mL: MIC [11] | MIC [13]
8 µg/mL: MIC [1]
1 µg/mL: MIC [15]
4 µg/mL: MIC [7] | MIC [14]

CC(C)(O/N=C(\C(=O)N[C@@H]1C(=O)N2C(C(=O)[O-])=C(C[n+]3ccccc3)CS[C@H]12)c1csc(N)n1)C(=O)O [CEFTAZIDIME]
4 µg/mL: MIC [10]
16 µg/mL: MIC [11]
64 µg/mL: MIC [3]
> 64 µg/mL: MIC [1] | MIC [2] | MIC [5] | MIC [6] | MIC [8] | MIC [15] | MIC [12] | MIC [13]
32 µg/mL: MIC [7] | MIC [14]
1 µg/mL: MIC [4]
46.2%: Activity [9]

Cn1c(N)c(NC(=O)NCCN)c[n+]1CC1=C(C(=O)O)N2C(=O)[C@@H](NC(=O)/C(=N\OC(C)(C)C(=O)[O-])c3nsc(N)n3)[C@H]2SC1 [CEFTOLOZANE]
2 µg/mL: MIC90 [16] | MIC90 [19] | MIC90 [20] | MIC90 [24] | MIC90 [25] | MIC90 [26] | MIC90 [28] | MIC90 [31] | MIC90 [32] | MIC90 [34] | MIC90 [35] | MIC90 [36] | MIC90 [41] | MIC90 [45]
8 µg/mL: MIC90 [42] | MIC90 [47]
0.5 µg/mL: MIC [10] | MIC50 [34]
32 µg/mL: MIC [1] | MIC [3] | MIC [5] | MIC [7] | MIC [13] | MIC [14]
> 8 µg/mL: MIC [27]
4 µg/mL: MIC90 [17] | MIC90 [18] | MIC90 [21] | MIC90 [22] | MIC90 [29] | MIC90 [30] | MIC90 [33] | MIC90 [37] | MIC90 [38] | MIC90 [39] | MIC90 [40] | MIC90 [43] | MIC90 [44] | MIC90 [48]
64 µg/mL: MIC [2] | MIC [6] | MIC [8] | MIC [15] | MIC [11] | MIC [12] | MIC90 [46]
1 µg/mL: MIC50 [16] | MIC50 [17] | MIC50 [18] | MIC50 [19] | MIC50 [20] | MIC50 [21] | MIC50 [22] | MIC90 [23] | MIC50 [24] | MIC50 [25] | MIC50 [26] | MIC50 [28] | MIC50 [29] | MIC50 [30] | MIC50 [31] | MIC50 [32] | MIC50 [33] | MIC50 [35] | MIC50 [36] | MIC50 [37] | MIC50 [38] | MIC50 [39] | MIC50 [40] | MIC50 [41] | MIC50 [42] | MIC50 [43] | MIC50 [44] | MIC50 [45] | MIC50 [46] | MIC50 [47] | MIC50 [48]
0.25 µg/mL: MIC [4]
0.51 µg/mL: MIC50 [23]

O=C(O)c1cn(C2CC2)c2cc(N3CCNCC3)c(F)cc2c1=O [CIPROFLOXACIN]
4 µg/mL: MIC [2] | MIC [6]
16 µg/mL: MIC [8]
1 µg/mL: MIC [3]
